{"source": "ChEMBL document CHEMBL4814005", "about": "“Pragmatic recruitment of memantine as the capping group for the design of HDAC inhibitors: A preliminary attempt to unravel the enigma of glioblastoma” (Eur J Med Chem, 2021)", "key": {"A 172 [1]": {"test_system": "A 172", "assay": "Induction of cell cycle arrest in human A 172 cells assessed as sub-G1 population upto 10 uM after 2 days by flow cytometry/PI staining assay", "format": "functional, cell-based", "settings": "dose microM <=10, time 2.0 day"}, "A 172 [2]": {"test_system": "A 172", "assay": "Cytotoxicity against TMZ-resistant human A 172 cells assessed as reduction in cell viability upto 30 uM by MTT assay", "format": "functional, cell-based", "settings": "dose microM <=30, time hrs <=72, TDE = time-dependent effect"}, "[3]": {"target": "Cyclin-dependent kinase 1/cyclin B1 (Homo sapiens) (UniProt P06493+P14635)", "sequence (P06493 whole entry, looked up)": "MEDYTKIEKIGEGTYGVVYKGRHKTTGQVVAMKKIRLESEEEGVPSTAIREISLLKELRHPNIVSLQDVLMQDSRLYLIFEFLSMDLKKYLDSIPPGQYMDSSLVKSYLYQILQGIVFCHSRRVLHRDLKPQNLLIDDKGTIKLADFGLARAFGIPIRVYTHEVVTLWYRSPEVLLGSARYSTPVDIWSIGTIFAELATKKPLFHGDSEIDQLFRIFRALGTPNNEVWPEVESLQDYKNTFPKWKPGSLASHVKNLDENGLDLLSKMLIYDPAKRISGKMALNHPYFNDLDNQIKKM", "sequence (P14635 whole entry, looked up)": "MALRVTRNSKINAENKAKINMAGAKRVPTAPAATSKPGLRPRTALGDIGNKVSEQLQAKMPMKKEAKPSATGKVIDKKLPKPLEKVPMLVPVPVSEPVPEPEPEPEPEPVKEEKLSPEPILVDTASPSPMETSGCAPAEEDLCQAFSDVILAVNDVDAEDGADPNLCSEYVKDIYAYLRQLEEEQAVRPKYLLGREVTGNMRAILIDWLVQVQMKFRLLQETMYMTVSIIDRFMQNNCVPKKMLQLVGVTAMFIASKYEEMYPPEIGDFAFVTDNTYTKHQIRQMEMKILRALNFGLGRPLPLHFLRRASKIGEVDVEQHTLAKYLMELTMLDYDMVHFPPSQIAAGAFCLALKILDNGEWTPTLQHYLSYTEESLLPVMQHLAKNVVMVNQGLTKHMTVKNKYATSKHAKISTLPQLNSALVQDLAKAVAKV", "assay": "Inhibition of CDK1/Cyclin B interaction in human A 172 cells assessed as CDK1 acetylation at 3 uM for 24 hrs by Western blot analysis", "format": "cell-based"}, "A 172 [4]": {"test_system": "A 172", "assay": "Cytotoxicity against human A 172 cells assessed as reduction in cell viability upto 30 uM by MTT assay", "format": "functional, cell-based", "settings": "dose microM <=30, time hrs <=72, TDE = time-dependent effect"}, "[5]": {"target": "T1, Protein deacetylase HDAC6 (Homo sapiens, UniProt Q9UBN7)", "T1 sequence (Q9UBN7 whole entry)": "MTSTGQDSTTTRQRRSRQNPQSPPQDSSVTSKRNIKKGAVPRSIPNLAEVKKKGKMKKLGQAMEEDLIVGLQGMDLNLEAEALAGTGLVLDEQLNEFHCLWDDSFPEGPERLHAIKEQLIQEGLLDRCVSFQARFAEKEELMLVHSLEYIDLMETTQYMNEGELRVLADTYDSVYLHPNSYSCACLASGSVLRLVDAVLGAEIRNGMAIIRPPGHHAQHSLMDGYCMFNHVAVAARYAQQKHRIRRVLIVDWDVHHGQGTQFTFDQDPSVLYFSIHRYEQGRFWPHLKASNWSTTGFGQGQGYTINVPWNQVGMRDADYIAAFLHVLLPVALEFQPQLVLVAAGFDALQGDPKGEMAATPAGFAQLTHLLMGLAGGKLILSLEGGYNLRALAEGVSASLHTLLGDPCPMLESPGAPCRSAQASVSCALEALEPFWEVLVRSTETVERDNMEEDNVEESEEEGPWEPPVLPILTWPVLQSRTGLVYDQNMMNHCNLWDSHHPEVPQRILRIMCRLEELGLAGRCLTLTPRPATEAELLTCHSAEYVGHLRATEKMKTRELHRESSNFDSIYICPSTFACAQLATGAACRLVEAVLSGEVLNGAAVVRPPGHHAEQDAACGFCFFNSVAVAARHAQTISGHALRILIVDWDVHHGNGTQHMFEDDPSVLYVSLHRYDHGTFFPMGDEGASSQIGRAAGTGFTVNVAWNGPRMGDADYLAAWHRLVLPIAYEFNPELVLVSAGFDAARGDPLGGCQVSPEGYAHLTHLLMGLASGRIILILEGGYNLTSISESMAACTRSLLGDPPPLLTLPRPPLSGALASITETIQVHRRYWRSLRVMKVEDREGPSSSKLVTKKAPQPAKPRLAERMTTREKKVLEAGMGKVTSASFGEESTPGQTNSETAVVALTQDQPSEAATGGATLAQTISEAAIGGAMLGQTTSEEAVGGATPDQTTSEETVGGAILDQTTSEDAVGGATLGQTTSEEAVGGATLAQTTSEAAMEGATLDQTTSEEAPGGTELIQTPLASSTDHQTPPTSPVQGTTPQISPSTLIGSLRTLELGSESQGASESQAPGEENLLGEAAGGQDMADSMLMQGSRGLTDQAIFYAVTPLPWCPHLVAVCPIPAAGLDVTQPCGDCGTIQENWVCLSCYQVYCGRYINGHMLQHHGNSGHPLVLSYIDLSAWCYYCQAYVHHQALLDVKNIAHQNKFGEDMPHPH", "assay": "Inhibition of human recombinant HDAC6 expressed in baculovirus infected insect cells using [RHKK(Ac)] fluorogenic substrate"}, "A 172 [6]": {"test_system": "A 172", "assay": "Effect on cyclin B1 expression in human A 172 cells upto 10 uM after 24 hrs by Western blot analysis", "format": "functional, cell-based", "settings": "dose microM <=10, time 24.0 hrs"}, "U-87 MG": {"test_system": "U-87 MG", "assay": "Cytotoxicity against TMZ-resistant human U-87 MG cells assessed as reduction in cell viability upto 30 uM by MTT assay", "format": "functional, cell-based", "settings": "U-87MG ATCC, dose microM <=30, time hrs <=72, TDE = time-dependent effect"}, "Glioblastoma cell line [7]": {"test_system": "Glioblastoma cell line", "assay": "Cytotoxicity against human glioblastoma cell P3 cells assessed as reduction in cell viability upto 72 hrs by MTT assay", "format": "functional, cell-based", "settings": "dose microM <=30, time hrs <=72"}, "Histone deacetylase 3": {"target": "Histone deacetylase 3 (Homo sapiens, UniProt O15379)", "sequence (O15379 whole entry)": "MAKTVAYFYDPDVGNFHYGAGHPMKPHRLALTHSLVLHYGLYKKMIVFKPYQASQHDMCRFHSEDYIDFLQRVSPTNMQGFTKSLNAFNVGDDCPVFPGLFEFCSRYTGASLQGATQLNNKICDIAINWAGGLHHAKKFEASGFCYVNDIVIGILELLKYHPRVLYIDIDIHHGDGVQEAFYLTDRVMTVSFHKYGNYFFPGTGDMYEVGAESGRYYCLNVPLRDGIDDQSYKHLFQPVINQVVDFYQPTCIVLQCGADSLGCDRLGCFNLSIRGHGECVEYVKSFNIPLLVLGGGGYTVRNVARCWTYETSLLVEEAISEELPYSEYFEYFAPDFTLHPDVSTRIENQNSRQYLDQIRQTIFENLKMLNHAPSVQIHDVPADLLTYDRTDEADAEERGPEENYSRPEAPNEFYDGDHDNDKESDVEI", "assay": "Inhibition of human recombinant HDAC3 using [RHKK(Ac)] fluorogenic substrate"}, "A 172 [8]": {"test_system": "A 172", "assay": "Cytotoxicity against human A 172 cells assessed as reduction in cell viability upto 72 hrs by MTT assay", "format": "functional, cell-based", "settings": "dose microM <=30, time hrs <=72"}, "Glioblastoma cell line [9]": {"test_system": "Glioblastoma cell line", "assay": "Cytotoxicity against TMZ-resistant human glioblastoma cell P3 cells assessed as reduction in cell viability upto 72 hrs by MTT assay", "format": "functional, cell-based", "settings": "dose microM <=30, time hrs <=72"}, "A 172 [10]": {"test_system": "A 172", "assay": "Induction of cell cycle arrest in human A172 cells assessed as accumulation at G1/S phase measured by increase in cyclin E expression upto 10 uM after 24 hrs by Western blot analysis", "format": "functional, cell-based", "settings": "dose microM <=10, time 24.0 hrs"}, "Glioblastoma cell line [11]": {"test_system": "Glioblastoma cell line", "assay": "Cytotoxicity against human glioblastoma cell P3 cells assessed as reduction in cell viability upto 30 uM by MTT assay", "format": "functional, cell-based", "settings": "dose microM <=30, time hrs <=72, TDE = time-dependent effect"}, "Glioblastoma cell line [12]": {"test_system": "Glioblastoma cell line", "assay": "Cytotoxicity against human glioblastoma cell P5 cells assessed as reduction in cell viability upto 30 uM by MTT assay", "format": "functional, cell-based", "settings": "dose microM <=30, time hrs <=72, TDE = time-dependent effect"}}, "note": "Activity calls are given as the source filed them. The rule behind the calls is not given here.", "data": [{"smiles": "CC12CC3CC(C)(C1)CC(NCc1ccc(NC(=O)CCCCCCC(=O)NO)cc1)(C3)C2", "values": [{"measurement": "Activity", "setting": "A 172 [1]", "value": "Active"}, {"measurement": "Activity", "setting": "A 172 [2]", "value": "Tde"}, {"measurement": "Activity", "setting": "[3]", "value": "Active"}, {"measurement": "Activity", "setting": "A 172 [4]", "value": "Tde"}, {"measurement": "IC50", "setting": "[5]", "value": 5.42, "unit": "nM"}, {"measurement": "Activity", "setting": "A 172 [6]", "value": "inactive"}, {"measurement": "Activity", "setting": "U-87 MG", "value": "Tde"}, {"measurement": "Activity", "setting": "Glioblastoma cell line [7]", "value": "Dose-Dependent Effect"}, {"measurement": "IC50", "setting": "Histone deacetylase 3", "value": 806, "unit": "nM"}, {"measurement": "Activity", "setting": "A 172 [8]", "value": "Dose-Dependent Effect"}, {"measurement": "Activity", "setting": "Glioblastoma cell line [9]", "value": "Dose-Dependent Effect"}, {"measurement": "Activity", "setting": "A 172 [10]", "value": "Active"}, {"measurement": "Activity", "setting": "Glioblastoma cell line [11]", "value": "Tde"}, {"measurement": "Activity", "setting": "Glioblastoma cell line [12]", "value": "Tde"}]}]}
